Laboratory results: patent US6576622B1, “Drug combination for the treatment of viral diseases” (University of Medicine & Dentistry of New Jersey, priority 1995, dated 2003)

Tests used:
[1] = test system: HIV-gpt; assay: HIV-gpt colony formation after infection of HeLa-T4 cells in the presence of antiretroviral agents; type: cell-based; details: for Number of colonies: HeLa-T4, plasmid derived HIV-gpt (COS cells), AZT 10 μM, DDI 50 μM, D4T 50 μM, no drug control 8800; for Number of colonies +AZT: colonies by day 10
[2] = test system: HIV-1IIIB; details: same AZT concentration as for the persistently resistant clone
[3] = test system: HIV-1 IIIB; assay: HIV-1 IIIB infection of Jurkat JE6.1 cell populations, AZT IC50 with FUdR (RT activity); type: cell-based; details: for IC50: Human immunodeficiency virus 1, IIIB, Jurkat, 144 h, concentration of AZT for 50% inhibition of RT activity at day 6, F = μM FUdR
Experimental: HIV-1 production in infected, cultures was determined by a ^32P-based assay as described (34). RT activity was determined by […] of ^32P bound to the DE81 paper by using a Molecular Dynamics phosphorimager. The results are reported as pixel units per microliter of the reaction mixture.
In these experiments, three populations of cells were studied.

[4] = test system: HIV-LacZ; type: cell-based; details: for Frequency: frequency of persistently resistant colonies, plasmid derived HIV-gpt
[5] = test system: R116 cell line; assay: MTT cytotoxicity assay in R116 cells; type: cell-based; details: persistently resistant clone R116, three days
Experimental: (§1) Three days later, drug cytotoxicity was quantitated with a standard MTT assay in which the uptake and metabolism of 3-[4,5-dimethylthiazol-2-yl]2,5-dephenyltetrazolium bromide (MTT) by cells was measured (14). The amount of formazan produced in 2 hours was determined by dissolving the product in 100% DMSO and then measuring the absorbance at 570 nm.
(§2) HeLa-T4 is the parental cell line.
(§3) Cells sensitive, parental HT4 (open circle), S1 (solid square), Spool (solid circle) and refractory, R116 (open square) were grown in the presence of various concentrations of FUdR. Three days latter, cell viability was determined by the MTT reduction method.

[6] = HPLC analysis of phosphorylated AZT metabolites in clones incubated with 3H-AZT; type: in vitro ADME; details: 3H-AZT for 4 hours, HPLC
Experimental: Cell lines were incubated with ^3H-thymidine or ^3H-AZT for 4 hours. Dried methanol extracts of the clones were redissolved in 60 μof distilled water and centrifuged to remove undissolved material. Twenty microliters of the sample was injected and separated on a 10×100 mm Rainin Hydropore anion exchange column. The nucleosides were eluted from the column with a linear gradient of potassium phosphate (5 mM to 1 M, pH4.0) at a flow rate of 1 ml/min. The samples were collected (0.5 ml), mixed with 5 ml Packard scintillation fluid, and quantitated using a liquid scintillation counter. Phosphorylated derivatives of thymidine and AZT were identified with authentic standards.
Pool sizes were determined by incubation of cells with ^3H-AZT for 4 hours followed by cellular extraction and HPLC. The numbers are expressed as pmoles/10^6 cells. The numbers in parentheses represent the percentage of total radioactive species in that pool.

[7] = test system: HIV-1IIIB; assay: HIV-1IIIB infection of S1 and R116 cells with AZT and FUdR (RT activity); type: cell-based; details: 0.1 μM AZT
Experimental: Infected cells were isolated in gpt selective media and expanded into cell lines. […] Cell line S1 is a control cell line.
Cell free supernatants were assayed for RT activity every two days. Results are the mean of triplicate cultures. Standard deviations were <15%.

[8] = test system: MLV-neo; assay: MLV-neo colony formation in the presence of antiviral agents; type: cell-based, Moloney Leukemia virus; details: Hela-T4, AZT 10 uM, DDI 50 uM, DDC 10 uM, D4T 50 uM, control 9050
Experimental: Production of recombinant HIV-gpt has been described elsewhere (26). The amphotropic cell line PA317 was transfected with the recombinant murine retrovirus pLXSN (36) and was used as the source of the recombinant MLV-neo virus. Stock preparations of HIV-1IIIB were harvested from H9 cells by the “shake off method” (13). Stock virus infectivity was determined by end-point dilution in MT-2 cells (32). Virus induced cytopathic effect was scored 7 days post-infection and the TCID50 was calculated with the Reed and Muench equation (33).
To confirm this high rate of infection in the absence of genetic drug resistance, we used several other recombinant viruses and host cells. […] A high rate of infection of Jurkat cells in the presence of d4T has also been seen.
Table 5. HIV-gpt produced in COS cells by transfection with plasmids (plasmid derived) is compared with HIV-gpt produced by, rescue from H9/HIV-gpt cell line after infection with HIV-IIIB and cells infected with MLV-neo.
(§4) Table 6. Colony formation and persistent resistance after Hela-T4 cell infection with MLV-neo virus in the presence and absence of various antiviral agents.

[9] = test system: recombinant HIV, recombinant MLV, or replication-competent HIV; type: cell-based
Text: The presence of a selectable marker gene in the recombinant HIV allowed the isolation of cells infected by the recombinant viruses in the presence of d4T. These cells were characterized by infection with both additional recombinant viruses and by replication-competent viruses.
as §4

[10] = in vitro; details: human
[11] = MTT cytotoxicity assay in R116 cells; type: cell-based; details: human, R116 cell line, three days, FIG. 8, read-out: ED50 (cytotoxicity)
Experimental: as §1, §2, §3

[12] = test system: HIV-gpt; details: in the presence of TIBO R82150; earlier study (26); cited from earlier work

Structure (SMILES): Cc1cn([C@H]2C[C@H](N=[N+]=[N-])[C@@H](CO)O2)c(=O)[nH]c1=O [AZT, 3′-Azido-3′-deoxythymidine]
- Number of colonies [1]: 12
- Frequency of colony formation in the presence of AZT ([1]; HeLa-T4 cells, 10 μM AZT, HIV-gpt by rescue with HIV-1): 5.0 × 10^−4
- Number of colonies +AZT ([1]; HeLa-T4 cells, 10 μM AZT, HIV-gpt by rescue with HIV-1, −AZT 1.8 × 10^4): 9
- Frequency of colony formation in the presence of AZT ([1]; HeLa-T4 cells, 10 μM AZT, plasmid-derived (COS cells) HIV-gpt): 5.2 × 10^−4
- Number of colonies +AZT ([1]; HeLa-T4 cells, 10 μM AZT, plasmid-derived (COS cells) HIV-gpt, −AZT 3.1 × 10^4): 16
- prevalence of colony formation after infection in the presence of AZT ([1]; HeLa-T4 cells, 10 μM AZT, similar with the two preparations of HIV-gpt): ~5×10^−4
- inhibition of infection of control cells by replication-competent HIV [2]: virtually complete inhibition
- IC50 ([3]; JE6.1AZTR cells (refractory to AZT)): 0.6 µM
- IC50 ([3]; JE6.1Con cells (control)): 0.2 µM
- IC50 ([3]; JE6.1 cells): 0.3 µM
- increase AZT IC50 ([3]; JE6.1AZTR entire population): 2 fold
- inhibition of HIV-LacZ infection ([4]; 10 μM AZT, nine of twelve cell lines, like wild type HeLa-T4 cells): complete inhibition of infection
- Frequency ([4]; HeLa-T4): 3.4 × 10^−4
- cytotoxic concentration that killed 50% [5]: greater than 1 mM
- concentration in cells ([6]; R116 (“persistently resistant”) cell line): 0.0155 pmoles/10^6 cells
- concentration in cells ([6]; S1 (sensitive) cell line): 0.0206 pmoles/10^6 cells
- HIV replication in the presence of drug ([7]; R116 cell line refractory to AZT, FIG. 7B): significant HIV replication
- antiviral efficacy ([7]; control S1 cell line, multiplicity of infection of 1, FIG. 7A): potent antiviral efficacy
- No. of colonies [8]: 12
- subset of cells persistently refractory to d4T that were also refractory to the antiviral effects of AZT [9]: approximately 20%
- Frequency ([9]; frequency of persistently resistant colonies, Hela-T4, MLV-neo): 2.2 × 10^−4

Structure (SMILES): O=c1[nH]c(=O)n([C@H]2C[C@H](O)[C@@H](CO)O2)cc1F [FUdR, 2′-deoxy-5-fluorouridine]
- EC50 at 3 days [10]: 7 µM
- antiviral activity when used by itself ([3]; in all of these studies): moderate antiviral activity
- EC50 at 3 days [11]: 700 nM

Structure (SMILES): CC(C)=CCN1Cc2cccc3[nH]c(=S)n(c23)C[C@@H]1C [TIBO]
- Number of colonies [1]: 3
- selection of cells “persistently resistant” to the antiretroviral effects of the drug ([4]; HeLa-T4, identical techniques as for nucleoside analogs): no cells “persistently resistant”
- Number of “persistently resistance” colonies ([4]; colonies from HIV-gpt infection of HeLa-T4 in presence of drug, resistant/tested): 0/3
- Frequency ([4]; HeLa-T4): 0
- prevalence of infection with COS-cell derived virus versus HIV-gpt rescued by replication-competent virus [12]: twenty fold lower
